The test system of assay [1] is gamma-aminobutyric acid A receptor (GABAAR). The assay is described as follows: Microarray gene expression in peptide-treated TR146 cells: GABA A receptor. Format: cell-based. Conditions: TR146 buccal mucosal cells, 2.0 μM peptide, 6 hours, vs mock-treated, Affymetrix Human Genome Focus Array. The method, then: (§1) TR146 buccal mucosal cells, obtained from Cancer Research U.K., were propagated in Dulbecco's modified Eagle medium (DMEM) high glucose (Gibco). The culture medium supplemented with 3.7 mg/ml NaHCO3, 10% FCS, 50 units/ml penicillin G, and […] streptomycin sulphate. Cells were passaged when 90% confluence was reached. The medium was discarded, and cells were washed twice with sterile DPBS (without calcium and magnesium, Cellgro) and 0.25% trypsin-EDTA solution (Gibco) was added. The flask was placed at 37° C. for 10 minutes and then detached cells were suspended in growth medium and seeded in new flasks (dishes micro-well plates).
(§2) For microarray analysis, cells at 75-80% confluence in T75 flasks were treated with equimolar (2.0 μM) concentrations of peptide of SEQ ID NO 5. Mock-treated cells received same volume of solvent. After 6 hours the cells were washed twice with DPBS, trypsinized, suspended in 5 ml growth media and centrifuged (800 g for 10 minutes). Cells were resuspended in 5 ml DPBS and centrifuged again. […]
(§3) RNA isolation for Microarray Procedure Total RNAs were isolated with an Ambion RNAqueous Kit, and cDNAs were synthesized and purified for Affymetrix GeneChip® Human Genome Focus Array analysis. Raw data were analyzed by the Affymetrix NetAFFX Analysis Center online tools.
(§4) The nature of change of gene expression profile in response to the peptide was determined. […]

Assay [2] has as its system leptin. The assay is described as follows: Proteomic microarray (antibody membrane, chemiluminescence): leptin protein expression in TR146 cells. Format: cell-based. Conditions: TR146 buccal mucosal cells, 2.0 μM peptide, 24 hours, vs mock-treated. As to the method: as §1
For proteomic microarray analysis, cells at 75-80% confluence in T75 flasks were treated with equimolar (2.0 μM) concentrations of a peptide consisting of the sequence FVAPFPEVFGKEKV (SEQ ID NO 2), […] (SEQ ID NO 3), GPVRGPFPI (SEQ ID NO 4), EPVLGPVRGPFPI (SEQ ID NO 5), VPYPQRDMPIQ (SEQ ID NO 6), […] (SEQ ID NO 7), EPVLGPVR (SEQ ID NO 8) and […] (SEQ ID NO 1). Mock-treated cells received same volume of solvent. After 24 hours the cells were washed twice with DPBS, trypsinized, suspended in 5 ml growth media and centrifuged (800 g for 10 minutes). Cells were resuspended in 5 ml DPBS and centrifuged again.
Antibodies specific to leptin were immobilised on the surface of a membrane. Sample extracts of cell samples each treated with peptides of amino acid sequences SEQ ID NO 1, 2, 3, 4, 5, 6, 7 and 8 were incubated with the membranes. Biotinylated antibodies, specific to leptin-antibody complexes, were then incubated with the membranes. Bound leptin was quantified by measuring chemiluminescence.

In assay [3] the test system is rho 2. In words: Microarray gene expression in peptide-treated TR146 cells: rho 2. It is filed as cell-based. The conditions noted are these: TR146 buccal mucosal cells, 2.0 μM peptide, 6 hours, vs mock-treated, Affymetrix Human Genome Focus Array. As to the method: as §1, §2, §3, §4
For assay [4], the system named is beta 2 gamma-aminobutyric acid receptor, theta. The assay is described as follows: Microarray gene expression in peptide-treated TR146 cells: beta 2 GABA receptor, theta. The conditions noted are these: TR146 buccal mucosal cells, 2.0 μM peptide, 6 hours, vs mock-treated, Affymetrix Human Genome Focus Array. Format: cell-based. The method, then: as §1, §2, §3, §4

Assay [5] deals with glutamate decarboxylase 2 (pancreatic islets, lung and brain, 65 kDa). In words: Microarray gene expression in peptide-treated TR146 cells: glutamate decarboxylase 2 (65 kDa). It is filed as cell-based. The conditions noted are these: TR146 buccal mucosal cells, 2.0 μM peptide, 6 hours, vs mock-treated, Affymetrix Human Genome Focus Array. The method, then:
as §1, §2, §3, §4

The subject of assay [6] is brain glutamate decarboxylase 2. In words: Microarray gene expression in peptide-treated TR146 cells: brain glutamate decarboxylase 2. Format: cell-based. The conditions noted are these: TR146 buccal mucosal cells, 2.0 μM peptide, 6 hours, vs mock-treated, Affymetrix Human Genome Focus Array. As to the method:
as §1
(§5) For microarray analysis, cells at 75-80% confluence in T75 flasks were treated with equimolar (2.0 μM) concentrations of a peptide consisting of the sequence […] (SEQ ID NO 1). […]
(§6) Total RNAs were isolated with an Ambion RNAqueous Kit, and cDNAs were synthesized and purified for Affymetrix GeneChip® Human Genome Focus Array analysis. Raw data were analyzed by the Affymetrix NetAFFX Analysis Center online tools.
(§7) The nature of change of gene expression profile in response to the peptide consisting of the sequence […] (SEQ ID NO 1) was determined. […]
(§8) The nature of change of gene expression profile in response to each of the peptides consisting of the sequence RMPLPPRGCPAAAPWS (SEQ ID NO 10) or […] (SEQ ID NO 1) was determined. […]

For assay [7], the system named is glutamate receptor, ionotropic, N-methyl D-aspartate 2A. The assay is described as follows: Microarray gene expression in peptide-treated TR146 cells: NMDA 2A glutamate receptor. Format: cell-based. Conditions: TR146 buccal mucosal cells, 2.0 μM peptide, 6 hours, vs mock-treated, Affymetrix Human Genome Focus Array. The method, then: as §1, §5, §6, §7, §8
The test system of assay [8] is glutamate receptor, metabotropic 8. The assay is described as follows: Microarray gene expression in peptide-treated TR146 cells: metabotropic glutamate receptor 8. It is filed as cell-based. Conditions: TR146 buccal mucosal cells, 2.0 μM peptide, 6 hours, vs mock-treated, Affymetrix Human Genome Focus Array. The method, then:
as §1, §5, §6, §7, §8

For assay [9], the system named is Apolipoprotein E (APOE) and receptors. The assay is described as follows: Microarray gene expression in peptide-treated TR146 cells: APOE and receptors. It is filed as cell-based. Conditions: TR146 buccal mucosal cells, 2.0 μM peptide, 6 hours, vs mock-treated, Affymetrix Human Genome Focus Array. The method, then:
as §1, §5, §6, §7, §8

For assay [10], the system named is Bleomycin hydrolase. The assay is described as follows: Microarray gene expression in peptide-treated TR146 cells: bleomycin hydrolase. It is filed as cell-based. Conditions: TR146 buccal mucosal cells, 2.0 μM peptide, 6 hours, vs mock-treated, Affymetrix Human Genome Focus Array. The method, then: as §1, §5, §6, §7, §8
The subject of assay [11] is TR146 buccal mucosal cells. In words: Microarray gene expression profile of peptide-treated TR146 cells (number of genes altered). It is filed as cell-based, human. The conditions noted are these: 2.0 μM peptide, 6 hours. As to the method: as §1
For microarray analysis, cells at 75-80% confluence in T75 flasks were treated with equimolar (2.0 μM) concentrations of a peptide consisting of the sequence […] (SEQ ID NO 1). Mock-treated cells received same volume of solvent. After 6 hours the cells were washed twice with DPBS, trypsinized, suspended in 5 ml growth media and centrifuged (800 g for 10 minutes). Cells were resuspended in 5 ml DPBS and centrifuged again. Cell pellets were used for RNA isolation.
as §6
The nature of change of gene expression profile in response to the peptide consisting of the sequence […] (SEQ ID NO 1) was determined. Four result files were generated: 1. Molecular networks; 2. Biological functions and diseases; 3. Metabolic-, signalling-, and other molecular pathways; 4. Network node molecule lists. Fischer's exact test was used to calculate a p-value determining the probability that each biological function and/or disease assigned to that data set is due to chance alone.

Assay [12] deals with glutamate receptor, metabotropic 7. The assay is described as follows: Microarray gene expression in peptide-treated TR146 cells: metabotropic glutamate receptor 7. Format: cell-based. Conditions: TR146 buccal mucosal cells, 2.0 μM peptide, 6 hours, vs mock-treated, Affymetrix Human Genome Focus Array. The method, then:
as §1, §5, §6, §7, §8

Assay [13] relates to protein-tyrosine phosphatase, receptor-type, F. The assay is described as follows: Microarray gene expression in peptide-treated TR146 cells: protein-tyrosine phosphatase, receptor-type, F. It is filed as cell-based. Conditions: TR146 buccal mucosal cells, 2.0 μM peptide, 6 hours, vs mock-treated, Affymetrix Human Genome Focus Array. As to the method:
as §1
(§9) For microarray analysis, cells at 75-80% confluence in T75 flasks were treated with equimolar (2.0 μM) concentrations of a peptide consisting of the sequence RMPLPPRGCPAAAPWS (SEQ ID NO 10) or […] (SEQ ID NO 1). Mock-treated cells received same volume of solvent. […]
as §6, §8

Assay [14] deals with Amyloid Beta (A4) Precursor Protein (APP). In words: Microarray gene expression in peptide-treated TR146 cells: APP. Format: cell-based. Conditions: TR146 buccal mucosal cells, 2.0 μM peptide, 6 hours, vs mock-treated, Affymetrix Human Genome Focus Array. The method, then:
as §1, §9, §6, §8

The nature of assay [15]: Body weight of mice on high-fat diet (HFD) co-administered peptides. Format: in vivo. The conditions noted are these: for body weight gain compared to control fed with HFD alone: peptide co-administered with HFD for 10 months; for body weight: peptide co-administered with high-fat diet (HFD) for 10 months, HFD control 54.7 g, regular diet 29.8 g.
Assay [16] has as its system Stathmin-1. The assay is described as follows: Microarray gene expression in peptide-treated TR146 cells: Stathmin-1. It is filed as cell-based. Conditions: TR146 buccal mucosal cells, 2.0 μM peptide, 6 hours, vs mock-treated, Affymetrix Human Genome Focus Array. The method, then:
as §1, §9, §6, §8

In assay [17] the test system is Renin (angiotensinogenase). The assay is described as follows: Microarray gene expression in peptide-treated TR146 cells: renin. Format: cell-based. The conditions noted are these: TR146 buccal mucosal cells, 2.0 μM peptide, 6 hours, vs mock-treated, Affymetrix Human Genome Focus Array. As to the method: as §1
(§10) For microarray analysis, cells at 75-80% confluence in T75 flasks were treated with equimolar (2.0 μM) concentrations of peptides. Mock-treated cells received same volume of solvent. After 6 hours the cells were washed twice with DPBS, trypsinized, suspended in 5 ml growth media and centrifuged (800 g for 10 minutes). Cells were resuspended in 5 ml DPBS and centrifuged again. Cell pellets were used for RNA isolation.
as §6, §4

Assay [18] concerns Resistin. The assay is described as follows: Microarray gene expression in peptide-treated TR146 cells: resistin. Format: cell-based. The conditions noted are these: TR146 buccal mucosal cells, 2.0 μM peptide, 6 hours, vs mock-treated, Affymetrix Human Genome Focus Array. As to the method:
as §1, §10, §6, §4

“Also recorded” adds a separate entry of the source. Where no end group is shown, it is not given here.

Take “EPVLGPVRGPFPI (listed as Ovis sp.) [SEQ ID NO 5, peptide homologous with positions 195 to 207 of casein beta]”: the “gene expression of gamma-aminobutyric acid A receptor (GABAAR)” value in assay [1] is listed as “downregulated”. For the same sequence, the “protein expression of leptin” value in [2] is recorded as “upregulated”. Further, the “gene expression of rho 2” value in [3] is reported as “downregulated”. In addition, the “gene expression of beta 2 gamma-aminobutyric acid receptor, theta” value in [4] is on record as “downregulated”. Besides, the “gene expression of glutamate decarboxylase 2 (pancreatic islets, lung and brain, 65 kDa)” value in assay [5] is recorded as “downregulated”.
Take RPKHPIKHQGLPQEVLNENLLRF [SEQ ID NO 1]: the “gene expression of brain glutamate decarboxylase 2” value in [6] is recorded as “Downregulation; also recorded: down-regulated”. Further, in assay [7], the “gene expression of glutamate receptor, ionotropic, N-methyl D-aspartate 2A” value is recorded as “Downregulation; also recorded: down-regulated”. Also, the “protein expression of leptin” value in assay [2] is listed as “upregulated”. For the same sequence, the “gene expression of glutamate receptor, metabotropic 8” value in [8] is listed as “Downregulation; also recorded: down-regulated”. Also, in assay [9], the “gene expression of Apolipoprotein E (APOE) and receptors” value is listed as “Downregulation; also recorded: down-regulated”. For the same sequence, the “gene expression of bleomycin hydrolase” value in [10] is given as “Upregulation; also recorded: upregulated”. Also, in [11], the “number of genes down-regulated” value is reported as 296 genes and the “number of genes up-regulated” value is on record as 101 genes. Further, in assay [11] (total altered), the “number of genes with altered expression” value was approximately 400 genes. The “gene expression of glutamate receptor, metabotropic 7” value in assay [12] is recorded as “Downregulation; also recorded: down-regulated”.
Take “SDIPNPIGSENSEKTTMPLW (listed as Ovis sp.) [SEQ ID NO 3, peptide homologous with positions 195-214 of casein alpha S-1]”: in assay [2], the “protein expression of leptin” value is listed as “upregulated”.
Still for that read-out and setting: the value for “VPYPQRDMPIQ (listed as Ovis sp.) [SEQ ID NO 6, peptide homologous with positions 178-188 of casein beta]” was “upregulated”.
As for “GPVRGPFPI (listed as Ovis sp.) [SEQ ID NO 4, peptide homologous with positions 199-207 of casein beta]”, in assay [2], the “protein expression of leptin” value is recorded as “upregulated”.
Take “RMPLPPRGCPAAAPWS (listed as Ovis sp.) [SEQ ID NO 10]”: in [13], the “gene expression of protein-tyrosine phosphatase, receptor-type, F” value was “downregulated”. Moreover, the “gene expression of Amyloid Beta (A4) Precursor Protein (APP)” value in [14] is listed as “downregulated”. In assay [15], the “body weight gain compared to control fed with HFD alone” value is reported as “lower” and the body weight stood at 50.1 g. Besides, the “gene expression of Stathmin-1” value in assay [16] is “upregulated”.
Consider “SLSQSKVLPVPQKAVPYPQRDMPIQ (listed as Ovis sp.) [SEQ ID NO 7, peptide homologous with positions 164-188 of casein beta]”, for which, in [2], the “protein expression of leptin” value is given as “upregulated”.
Take “FVAPFPEVFGKEKV (listed as Ovis sp.) [SEQ ID NO 2, peptide homologous with positions 39 to 52 of casein alpha S-1]”: the “gene expression of renin (angiotensinogenase)” value in assay [17] is listed as “down-regulated”. Also, the “protein expression of leptin” value in assay [2] was “upregulated”. For the same sequence, in assay [18], the “gene expression of resistin” value is listed as “down-regulated”. In addition, in assay [15], the “body weight gain compared to control fed with HFD alone” value was “lower” and the body weight came to 52.1 g.
For the sequence “EPVLGPVR (listed as Ovis sp.) [SEQ ID NO 8, peptide homologous with positions 195-202 of casein beta]”, the “protein expression of leptin” value in assay [2] is “upregulated”.
For “RGPFPIIV (listed as Ovis sp.) [SEQ ID NO 9, peptide said to be homologous with positions 202-209 of casein alpha S-1]”, in assay [15], the “body weight gain compared to control fed with HFD alone” value is “lower” and the body weight is 51.1 g.
